Measured values from patent US4959370A, “Alkaloids of marine origin” (priority 1989, dated 1990).
Like-named read-outs stand apart in the source and are kept apart here.

Legend:
[1] = test system: fourth larval stage of N. brasiliensis; assay: In vitro anthelmintic activity against fourth larval stage (L4); type: cell-based, Nippostrongylus brasiliensis; settings: 50 μg/ml, 37° C., seven days; for inhibition at 50 µg/mL: Nippostrongylus brasiliensis, 168 h
Method: To obtain the fourth larval stage (L4) of Nippostrongylus brasiliensis, rats were inoculated with 6,500 to 6,750 N. brsiliensis third stage larvae subcutaneously. Seventy-two hours later the rats were sacrificed and the fourth stage larvae harvested. Compounds of Formula (I) were tested at 50 μg/mL against the fourth larval stage of N. brasiliensis at approximately 50 L4/well. This mixture was incubated at 37° C. for a total of seven days and then read for activity. Parameters used to determine drug activity were motility, viability, and the ability of fourth stage larvae to molt to the adult, i.e., cast formation. A compound was defined as active if (1) cast formation was reduced by 40 percent or more; or (2) viability and motility together were reduced 40 percent or more. | Compound B is a compound of Formula (I) where R is methyl. *Percent cast | reduction was determined by the following: | **Percent viability reduction was determined by the | following: | ***Percent motility reduction was a subjective evaluation

[2] = target: T1, purified cloned reverse transcriptase (RT) (HIV-1 M:B_HXB2R, UniProt P04585); assay: In vitro reverse transcriptase inhibitory activity; type: biochemical; settings: 400 μg/ml in 10 percent DMSO; 37° C., 0, 15, and 30 minutes; decrease in [3H] TTP incorporation vs controls
T1 construct: mature chain of Gag-Pol polyprotein
Method: The activity of purified cloned reverse transcriptase (RT), in the presence or absence of test compound, was assayed by measuring the incorporation of tritiated thymidine triphosphate ([^3 H] TTP) into a DNA chain using polyadenosine as the template and oligodeoxythymidine as the primer (Biochem. Pharm. 1987, Vol. 36, No. 24 pp. 4361-4362). The final concentration of the compounds tested for anti-RT activity was 400 μg/ml in 10 percent DMSO. Controls contained 10 percent DMSO only. After incubation at 37° C. for 0, 15, and 30 minutes, an aliquot of the incubation mixture was spotted on cellulose paper, washed in TCA-pyrophosphate solution to remove [^3 H] TTP, dried and analyzed for the rate of incorporation of radioactivity. The compounds which inhibited more than 50 percent of the enzyme activity, as determined by a decrease in radioactivity compared with controls, were considered active.

[3] = cast formation (molt to adult), read-out: PERCENT REDUCTION COMPARED TO CONTROL: Casts
[4] = subjective evaluation, read-out: PERCENT REDUCTION COMPARED TO CONTROL: Motility

SMILES: CNc1c2c(c3nc4ccccc4c4c3c1N=C4)NCCC2=O [Compound A, plakinidine A]
- PERCENT REDUCTION COMPARED TO CONTROL: Viability [1]: 100%
- inhibition at 50 µg/mL [1, 3]: 100%
- inhibition at 50 µg/mL [1, 4]: 100%
- inhibition at 400 µg/mL [2]: 83%

SMILES: CN(C)c1c2c(c3nc4ccccc4c4c3c1N=C4)NCCC2=O [Compound B, plakinidine B]
- PERCENT REDUCTION COMPARED TO CONTROL: Viability [1]: 100%
- inhibition at 50 µg/mL [1, 3]: 100%
- inhibition at 50 µg/mL [1, 4]: 100%
